# According to patent publication US10087478B2, “Compositions comprising a polypeptide having cellulolytic enhancing activity and a nitrogen-containing compound and uses thereof” (priority 2010, dated 2018):
# B1: A. fumigatus GH61B polypeptide: GH61 polypeptide having cellulolytic enhancing activity, SEQ ID NO: 30, recombinantly prepared in Aspergillus oryzae JaL355 (protein, listed as Aspergillus fumigatus)
# chain: MTLSKITSIAGLLASASLVAGHGFVSGIVADGKYYGGYLVNQYPYMSNPPDTIAWSTTATDLGFVDGTGYQSPDIICHRDAKNGKLTATVAAGSQIEFQWTTWPESHHGPLITYLAPCNGDCATVDKTTLKFVKIAAQGLIDGSNPPGVWADDEMIANNNTATVTIPASYAPGNYVLRHEIIALHSAGNLNGAQNYPQCFNIQITGGGSAQGSGTAGTSLYKNTDPGIKFDIYSDLSGGYPIPGPALFNA
# B2: T. aurantiacus GH61A polypeptide: GH61A polypeptide having cellulolytic enhancing activity, SEQ ID NO: 14, recombinantly prepared in Aspergillus oryzae JaL250 (protein, listed as Thermoascus aurantiacus)
# chain: MSFSKIIATAGVLASASLVAGHGFVQNIVIDGKYYGGYLVNQYPYMSNPPEVIAWSTTATDLGFVDGTGYQTPDIICHRGAKPGALTAPVSPGGTVELQWTPWPDSHHGPVINYLAPCNGDCSTVDKTQLEFFKIAESGLINDDNPPGIWASDNLIAANNSWTVTIPTTIAPGNYVLRHEIIALHSAQNQDGAQNYPQCINLQVTGGGSDNPAGTLGTALYHDTDPGILINIYQKLSSYIIPGPPLYTG
# What was measured:
# [1] = tested on: Trichoderma reesei cellulase composition; assay: Nitrogen-containing compound effect(no GH61) on hydrolysis of AVICEL by T. reesei cellulase composition; format: biochemical; settings: for reduction in hydrolysis: no GH61
# Procedure: The concentration of 1,2-benzenediamine compounds was 5 mM and the concentration of 2-aminophenol was 1 mM.
# The concentration of nitrogen-containing compounds was 5 mM.
# (§1) The concentration of the GH61 polypeptide was either 0.4 or 2 mg per g cellulose.
# [2] = tested on: Talaromyces stipitatus GH61 polypeptide; assay: Effect of TEMPO on T. stipitatus GH61 during AVICEL hydrolysis by T. reesei cellulase composition; format: biochemical; settings: GH61 0.4 or 2 mg per g cellulose, day 7
# Procedure: as §1
# [3] = target: Trichoderma reesei GH61B polypeptide (Trichoderma reesei, UniProt Q7Z9M7); assay: Effect of TEMPO on T. reesei GH61B during AVICEL hydrolysis by T. reesei cellulase composition; format: biochemical; settings: GH61 0.4 or 2 mg per g cellulose, day 7
# Procedure: as §1
# [4] = tested on: Penicillium pinophilum GH61A polypeptide; assay: Effect of TEMPO on P. pinophilum GH61A during AVICEL hydrolysis by T. reesei cellulase composition; format: biochemical; settings: GH61 0.4 or 2 mg per g cellulose, day 7
# Procedure: as §1
# [5] = tested on: Thielavia terrestris GH61E polypeptide; assay: Effect of TEMPO on T. terrestris GH61E during AVICEL hydrolysis by T. reesei cellulase composition; format: biochemical
# Procedure: as §1
# [6] = target: Aspergillus fumigatus GH61B polypeptide (Aspergillus fumigatus, UniProt Q4WP32); assay: Effect of TEMPO on A. fumigatus GH61B during AVICEL hydrolysis by T. reesei cellulase composition; format: biochemical; settings: GH61 0.4 or 2 mg per g cellulose, day 7
# Procedure: as §1
# [7] = tested on: T. reesei cellulase composition; assay: AVICEL cellulolysis by T. reesei cellulase composition with combinations of compounds and various GH61 polypeptides; format: biochemical, Trichoderma reesei
# [8] = tested on: Trichoderma reesei cellulase composition; assay: Hydrolysis of AVICEL by T. reesei cellulase composition with and without GH61 polypeptide, no nitrogen-containing compound; format: biochemical
# Source text: Microcrystalline cellulose was used as the source of the cellulosic material.
# [9] = pterin dissolved in DMSO, cellulose 29.5 mg per ml, 7 days
# [10] = Example 6, 5 mM compound, 14 mg/ml AVICEL, 1, 3, 5, 7 or 8 days (FIG. 2 white bars)
# Chain of Trichoderma reesei GH61B polypeptide (Q7Z9M7 20-249): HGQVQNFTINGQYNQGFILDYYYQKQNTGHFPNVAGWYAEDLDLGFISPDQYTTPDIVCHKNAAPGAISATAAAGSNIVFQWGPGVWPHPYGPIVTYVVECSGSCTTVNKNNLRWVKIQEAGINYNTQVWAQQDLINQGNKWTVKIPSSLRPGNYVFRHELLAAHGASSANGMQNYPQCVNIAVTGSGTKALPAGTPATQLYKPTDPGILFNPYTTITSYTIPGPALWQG
molecule,measurement,setting,value
"Nc1ccccc1N [1,2-benzenediamine]",nitrogen-containing compound effect(no GH61),"[1]; 5 mM compound, 14 mg/ml AVICEL, 1, 5 and 8 days (FIG. 1A)",less than 1
Nc1ccccc1O [2-aminophenol],nitrogen-containing compound effect(no GH61),"[1]; 1 mM 2-aminophenol, cellulose 29.5 mg per ml, 3 days",0.951±0.0198
same,nitrogen-containing compound effect(no GH61),"[1]; 1 mM 2-aminophenol, cellulose 29.5 mg per ml, 7 days",0.902±0.0301
same,reduction in hydrolysis,"[1]; 1 mM 2-aminophenol, 3 days",approximately 5%
same,reduction in hydrolysis,"[1]; 1 mM 2-aminophenol, 7 days",approximately 10%
"CC1Nc2nc(N)[nH]c(=O)c2NC1C.Cl (stereo not shown) [6,7-dimethyl-5,6,7,8-tetrahydropterine hydrochloride]",nitrogen-containing compound effect(no GH61),"[1]; pterin dissolved in DMSO, cellulose 29.5 mg per ml, 1 day (so in the source)",0.715±0.00557
same,nitrogen-containing compound effect(no GH61),[1]; [9],0.684±0.0203
"C[C@H](O)[C@H](O)[C@H]1CNc2nc(N)[nH]c(=O)c2N1.Cl.Cl [(6R)-5,6,7,8-tetrahydrobiopterin dihydrochloride]",nitrogen-containing compound effect(no GH61),"[1]; pterin dissolved in DMSO, cellulose 29.5 mg per ml, 3 days",0.924±0.0191
same,nitrogen-containing compound effect(no GH61),[1]; [9],0.901±0.0332
"CC1(C)CCCC(C)(C)N1[O] [TEMPO, 2,2,6,6-tetramethyl-1-piperidinyloxy]",GH61 effect,[2],greater than 1
same,nitrogen-containing compound effect(+GH61),[2],less than 1
same,GH61 effect,[3],greater than 1
same,nitrogen-containing compound effect(+GH61),[3],less than 1
same,nitrogen-containing compound effect(no GH61),[1]; [10],less than 1
same,nitrogen-containing compound effect(no GH61),"[1]; Example 7, TEMPO, late stage of hydrolysis, day 7 (FIGS. 3A, 3B)",less than 1
same,GH61 effect,[4],greater than 1
same,nitrogen-containing compound effect(+GH61),[4],less than 1
same,nitrogen-containing compound effect(+GH61),"[5]; GH61 0.4 or 2 mg per g cellulose, 1, 3 and 7 days",~1
same,GH61 effect,"[5]; GH61 0.4 or 2 mg per g cellulose, day 1",greater than 1
same,GH61 effect,[6],greater than 1
same,nitrogen-containing compound effect(+GH61),[6]; late stage,less than 1
CC(C)=NO [acetone oxime],nitrogen-containing compound effect(no GH61),[1]; [10],less than 1
ON=Cc1ccccn1 [pyridine-2-aldoxime],nitrogen-containing compound effect(no GH61),[1]; [10],slightly decreased
O=C1NC(=O)C(=NO)C(=O)N1 [violuric acid],nitrogen-containing compound effect(no GH61),[1]; [10],very slightly impacted
B1,"overall conversion of AVICEL, comparison of GH61 polypeptides",[7]; mixtures of compounds at 3 mM,highest overall conversion
B2,"overall conversion of AVICEL, comparison of GH61 polypeptides",[7]; most mixtures of compounds at 1 mM,greatest overall conversion
same,Percent conversion of AVICEL,"[8]; 14 mg/ml AVICEL, cellulase 4 mg/g cellulose, GH61 0.4 mg/g where present, pH 5.0, 50° C., 1 day",16±1%
same,Percent conversion of AVICEL,"[8]; same conditions, 3 days",30±4%
same,Percent conversion of AVICEL,"[8]; same conditions, 5 days",42.7±0.9%
same,Percent conversion of AVICEL,"[8]; same conditions, 7 days",45±4%
same,Percent conversion of AVICEL,"[8]; same conditions, 8 days",52.9±0.8%
